The results in this text go back to patent US20230011869A1 (Hoffmann-La Roche Inc., priority 2018, published 2023).

The term IC90 denotes the concentration at which the effect reaches the 90% level.

Each structure is given as a SMILES string. Where a name gives a salt, the structure may show the parent alone.

This experiment has as its system Acinetobacter baumannii ATCC17978. The experiment in a line: Antimicrobial susceptibility testing: 90% growth inhibitory concentration (IC90) determination, Iso-Sensitest broth. Format: cell-based. As to conditions: 90% growth inhibitory concentration, Acinetobacter baumannii ATCC17978, Iso-Sensitest broth, OD 600 nm over 16 h; read-out: ATCC17978 IC90. In short, it runs like this: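 A. baumannii ATCC17978 grown in Iso-Sensitest broth across 10 compound concentrations at 35±2 °C.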

Take `COc1ccc(-c2cnc3c(Nc4ccc(C(=O)N5CCN(C(=O)NC[C@@H](C)N)CC5)c(C)c4)nccn23)c(Cl)c1F` [Example 155, N-[(2R)-2-aminopropyl]-4-[4-[[3-(2-chloro-3-fluoro-4-methoxy-phenyl)imidazo[1,2-a]pyrazin-8-yl]amino]-2-methyl-benzoyl]piperazine-1-carboxamide formate]: the 90% effect concentration (IC90) was 0.15 µM.
Turning to `COc1ccc(-c2cnc3c(Nc4ccc(C(=O)N5CCN(C(=O)NC[C@H](C)N)CC5)c(C)c4)nccn23)c(Cl)c1F` [Example 156, N-[(2S)-2-aminopropyl]-4-[4-[[3-(2-chloro-3-fluoro-4-methoxy-phenyl)imidazo[1,2-a]pyrazin-8-yl]amino]-2-methyl-benzoyl]piperazine-1-carboxamide formate], the IC90 came to 0.18 µM.
Under `Cc1cc(Nc2nccn3c(-c4ccc(OCC#N)c(F)c4Cl)cnc23)ccc1C(=O)N1CCN(C(=O)N2CCO[C@H](CN)C2)CC1` [Example 157, 2-[4-[8-[4-[4-[(2R)-2-(aminomethyl)morpholine-4-carbonyl]piperazine-1-carbonyl]-3-methyl-anilino]imidazo[1,2-a]pyrazin-3-yl]-3-chloro-2-fluoro-phenoxy]acetonitrile formate] stands 0.092 µM; under `Cc1cc(Nc2nccn3c(-c4ccc(OCC#N)c(F)c4Cl)cnc23)ccc1C(=O)N1CCN(C(=O)N[C@H](C)CN)CC1` [Example 160, N-[(1R)-2-amino-1-methyl-ethyl]-4-[4-[[3-[2-chloro-4-(cyanomethoxy)-3-fluoro-phenyl]imidazo[1,2-a]pyrazin-8-yl]amino]-2-methyl-benzoyl]piperazine-1-carboxamide formate], 0.1 µM.
In the case of `Cc1cc(Nc2nccn3c(-c4ccc(OCC#N)c(F)c4Cl)cnc23)ccc1C(=O)N1CCN(C(=O)NC[C@@H](C)N)CC1` [Example 164, N-[(2R)-2-aminopropyl]-4-[4-[[3-[2-chloro-4-(cyanomethoxy)-3-fluoro-phenyl]imidazo[1,2-a]pyrazin-8-yl]amino]-2-methyl-benzoyl]piperazine-1-carboxamide formate], the 90% effect concentration (IC90) is 0.071 µM.
The value for `Cc1cc(Nc2nccn3c(-c4ccc(OCC#N)c(F)c4Cl)cnc23)ccc1C(=O)N1CCN(C(=O)NC[C@H](C)N)CC1` [Example 165, N-[(2S)-2-aminopropyl]-4-[4-[[3-[2-chloro-4-(cyanomethoxy)-3-fluoro-phenyl]imidazo[1,2-a]pyrazin-8-yl]amino]-2-methyl-benzoyl]piperazine-1-carboxamide formate] was 0.071 µM; that for `COc1ccc(-c2cnc3c(Nc4ccc(C(=O)N5CCN(C(=O)N[C@H](C)CN)CC5)c(C)c4)nccn23)c(Cl)c1F` [Example 166, formate] was 0.2 µM.
Under `COc1ccc(-c2cnc3c(Nc4ccc(C(=O)N5CCN(C(=O)N6CCO[C@H](CN)C6)CC5)c(C)c4)nccn23)c(Cl)c1F` [Example 167, [4-[(2R)-2-(aminomethyl)morpholine-4-carbonyl]piperazin-1-yl]-[4-[[3-(2-chloro-3-fluoro-4-methoxy-phenyl)imidazo[1,2-a]pyrazin-8-yl]amino]-2-methyl-phenyl]methanone formate] stands 0.22 µM.
For the compound `Cc1cc(Nc2nccn3c(-c4ccc(OC(F)F)cc4)cnc23)ccc1C(=O)N1CCN(C(=O)NCCN2CCC2)CC1` [Example 168, N-[2-(azetidin-1-yl)ethyl]-4-[4-[[3-[4-(difluoromethoxy)phenyl]imidazo[1,2-a]pyrazin-8-yl]amino]-2-methyl-benzoyl]piperazine-1-carboxamide formate], the IC90 was determined as 0.47 µM.
Consider `Cc1cc(Nc2nccn3c(-c4ccc(OC(F)F)cc4)cnc23)ccc1C(=O)N1CCN(C(=O)NC2CNC2)CC1` [Example 169, N-(azetidin-3-yl)-4-[4-[[3-[4-(difluoromethoxy)phenyl]imidazo[1,2-a]pyrazin-8-yl]amino]-2-methyl-benzoyl]piperazine-1-carboxamide trifluoroacetate], for which the IC90 came out at 0.47 µM.
Under `COc1ccc(-c2cnc3c(Nc4ccc(C(=O)N5CCN(C(=O)C6CCCN6)CC5)c(C)c4)nccn23)cc1F` (stereo not drawn) [Example 174, [4-[[3-(3-fluoro-4-methoxy-phenyl)imidazo[1,2-a]pyrazin-8-yl]amino]-2-methyl-phenyl]-[4-(pyrrolidine-2-carbonyl)piperazin-1-yl]methanone] stands 0.3 µM; under `COc1ccc(-c2cnc3c(Nc4ccc(C(=O)N5CCN(C(=O)[C@@H]6CCN6)CC5)c(C)c4)nccn23)cc1F` [Example 175, [4-[(2S)-azetidine-2-carbonyl]piperazin-1-yl]-[4-[[3-(3-fluoro-4-methoxy-phenyl)imidazo[1,2-a]pyrazin-8-yl]amino]-2-methyl-phenyl]methanone], 0.25 µM; under `Cc1cc(Nc2nccn3c(-c4ccc(OC(F)F)cc4)cnc23)ccc1C(=O)N1CCN(C(=O)[C@@H]2CCN2)CC1` [Example 176, [4-[(2S)-azetidine-2-carbonyl]piperazin-1-yl]-[4-[[3-[4-(difluoromethoxy)phenyl]imidazo[1,2-a]pyrazin-8-yl]amino]-2-methyl-phenyl]methanone hydrochloride], 0.13 µM.
Under `Cc1cc(Nc2nccn3c(-c4ccc(OC(F)F)cc4)cnc23)ccc1C(=O)N1CCN(C(=O)C2CCCN2)CC1` (stereo not drawn) [Example 177, [4-[[3-[4-(difluoromethoxy)phenyl]imidazo[1,2-a]pyrazin-8-yl]amino]-2-methyl-phenyl]-[4-(pyrrolidine-2-carbonyl)piperazin-1-yl]methanone hydrochloride] stands 0.21 µM; under `COc1ccc(-c2cnc3c(Nc4ccc(C(=O)N5CCN(C(=O)[C@@H]6CCCN6)CC5)c(C)c4)nccn23)cc1F` [Example 178, [4-[[3-(3-fluoro-4-methoxy-phenyl)imidazo[1,2-a]pyrazin-8-yl]amino]-2-methyl-phenyl]-[4-[(2S)-pyrrolidine-2-carbonyl]piperazin-1-yl]methanone hydrochloride], 0.089 µM; under `COc1ccc(-c2cnc3c(Nc4ccc(C(=O)N5CCN(C(=O)[C@H]6CCCN6)CC5)c(C)c4)nccn23)cc1F` [Example 179, [4-[[3-(3-fluoro-4-methoxy-phenyl)imidazo[1,2-a]pyrazin-8-yl]amino]-2-methyl-phenyl]-[4-[(2R)-pyrrolidine-2-carbonyl]piperazin-1-yl]methanone hydrochloride], 0.19 µM.
Turning to `Cc1cc(Nc2nccn3c(-c4ccc(OC(F)F)cc4)cnc23)ccc1C(=O)N1CCN(C(=O)[C@@H]2C[C@@H](O)CN2)CC1` [Example 180, [4-[[3-[4-(difluoromethoxy)phenyl]imidazo[1,2-a]pyrazin-8-yl]amino]-2-methyl-phenyl]-[4-[(2S,4R)-4-hydroxypyrrolidine-2-carbonyl]piperazin-1-yl]methanone hydrochloride], the IC90 came to 0.27 µM.
The value for `Cc1cc(Nc2nccn3c(-c4ccc(OC(F)F)cc4)cnc23)ccc1C(=O)N1CCC(C(=O)N2CCNCC2CO)CC1` (stereo not drawn) [Example 181, [4-[[3-[4-(difluoromethoxy)phenyl]imidazo[1,2-a]pyrazin-8-yl]amino]-2-methyl-phenyl]-[4-[2-(hydroxymethyl)piperazine-1-carbonyl]-1-piperidyl]methanone hydrochloride] was 0.13 µM.
The value for `Cc1cc(Nc2nccn3c(-c4ccc(OC(F)F)cc4)cnc23)ccc1C(=O)N1CCN(C(=O)[C@@H]2C[C@H](O)CN2)CC1` [Example 182, [4-[[3-[4-(difluoromethoxy)phenyl]imidazo[1,2-a]pyrazin-8-yl]amino]-2-methyl-phenyl]-[4-[(2S,4S)-4-hydroxypyrrolidine-2-carbonyl]piperazin-1-yl]methanone hydrochloride hydrochloride] was 0.18 µM; that for `Cc1cc(Nc2nccn3c(-c4ccc(OC(F)F)cc4)cnc23)ccc1C(=O)N1CCC(C(=O)N2CCNC(CO)C2)CC1` (stereo not drawn) [Example 183, [4-[[3-[4-(difluoromethoxy)phenyl]imidazo[1,2-a]pyrazin-8-yl]amino]-2-methyl-phenyl]-[4-[3-(hydroxymethyl)piperazine-1-carbonyl]-1-piperidyl]methanone hydrochloride] was 0.27 µM.
As to `CCc1cc(Nc2nccn3c(-c4ccc(OC)c(F)c4F)cnc23)ccc1C(=O)N1CCN(C(=O)[C@@H]2C[C@@H](O)CN2)CC1` [Example 185, [4-[[3-(2,3-difluoro-4-methoxy-phenyl)imidazo[1,2-a]pyrazin-8-yl]amino]-2-ethyl-phenyl]-[4-[(2S,4R)-4-hydroxypyrrolidine-2-carbonyl]piperazin-1-yl]methanone hydrochloride], the concentration for an effect of 90% (IC90) stood at 0.22 µM.
For the compound `COc1ccc(-c2cnc3c(Nc4ccc(C(=O)N5CCN(C(=O)[C@H]6CCNC6)CC5)c(C)c4)nccn23)cc1F` [Example 186, [4-[[3-(3-fluoro-4-methoxy-phenyl)imidazo[1,2-a]pyrazin-8-yl]amino]-2-methyl-phenyl]-[4-[(3S)-pyrrolidine-3-carbonyl]piperazin-1-yl]methanone hydrochloride], the concentration for an effect of 90% (IC90) was 0.25 µM.
With `COc1ccc(-c2cnc3c(Nc4ccc(C(=O)N5CCN(C(=O)C6CNC6)CC5)c(C)c4)nccn23)cc1F` [Example 187, [4-(azetidine-3-carbonyl)piperazin-1-yl]-[4-[[3-(3-fluoro-4-methoxy-phenyl)imidazo[1,2-a]pyrazin-8-yl]amino]-2-methyl-phenyl]methanone hydrochloride], the IC90 came to 0.23 µM.
In the case of `COc1ccc(-c2cnc3c(Nc4ccc(C(=O)N5CCN(C(=O)[C@H]6CCNC[C@@H]6O)CC5)c(C)c4)nccn23)c(F)c1F` [Example 192, [4-[[3-(2,3-difluoro-4-methoxy-phenyl)imidazo[1,2-a]pyrazin-8-yl]amino]-2-methyl-phenyl]-[4-[(3R,4S)-3-hydroxypiperidine-4-carbonyl]piperazin-1-yl]methanone hydrochloride], the IC90 worked out at 0.29 µM.
